For assay [1], the target named is T1, JAK3 (Homo sapiens, UniProt P52333).
T1 sequence (P52333 1-1124): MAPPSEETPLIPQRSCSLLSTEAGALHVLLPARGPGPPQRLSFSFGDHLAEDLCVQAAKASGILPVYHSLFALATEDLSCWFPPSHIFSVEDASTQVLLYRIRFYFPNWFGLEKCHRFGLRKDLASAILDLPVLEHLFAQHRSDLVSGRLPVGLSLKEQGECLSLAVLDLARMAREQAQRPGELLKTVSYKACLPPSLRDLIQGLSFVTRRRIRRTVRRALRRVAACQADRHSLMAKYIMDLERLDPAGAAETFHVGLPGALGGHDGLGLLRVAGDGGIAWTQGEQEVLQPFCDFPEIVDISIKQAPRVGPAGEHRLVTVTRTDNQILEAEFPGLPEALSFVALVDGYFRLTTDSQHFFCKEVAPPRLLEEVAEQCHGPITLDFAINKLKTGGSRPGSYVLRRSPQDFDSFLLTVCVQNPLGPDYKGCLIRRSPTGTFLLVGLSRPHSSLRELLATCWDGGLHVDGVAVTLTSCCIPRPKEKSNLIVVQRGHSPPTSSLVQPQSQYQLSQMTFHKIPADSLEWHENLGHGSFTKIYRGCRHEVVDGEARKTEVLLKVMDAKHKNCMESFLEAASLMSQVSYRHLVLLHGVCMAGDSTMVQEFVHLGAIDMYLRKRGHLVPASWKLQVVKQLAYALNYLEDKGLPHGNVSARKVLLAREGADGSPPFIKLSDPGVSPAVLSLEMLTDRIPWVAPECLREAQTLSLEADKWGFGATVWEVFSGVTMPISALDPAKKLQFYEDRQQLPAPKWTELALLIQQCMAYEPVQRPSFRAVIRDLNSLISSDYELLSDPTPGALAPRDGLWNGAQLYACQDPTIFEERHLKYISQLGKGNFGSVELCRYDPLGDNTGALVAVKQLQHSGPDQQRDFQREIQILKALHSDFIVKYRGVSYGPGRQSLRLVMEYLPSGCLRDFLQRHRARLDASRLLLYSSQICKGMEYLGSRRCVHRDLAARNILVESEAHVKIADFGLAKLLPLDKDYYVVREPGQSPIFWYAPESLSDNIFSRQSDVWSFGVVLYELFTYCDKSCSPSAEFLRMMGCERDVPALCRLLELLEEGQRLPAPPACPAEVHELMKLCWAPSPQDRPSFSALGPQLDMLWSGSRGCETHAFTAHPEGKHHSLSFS
Briefly: Inhibition of a panel of kinases, in vitro HotSpot kinase assay: JAK3. The following applies: D-compounds panel data; 1 μM ATP; read-out: IC50 JAK3. It counts as biochemical.

Assay [2] concerns the target T2, TEC (Homo sapiens, UniProt P42680).
T2 sequence (P42680 1-631): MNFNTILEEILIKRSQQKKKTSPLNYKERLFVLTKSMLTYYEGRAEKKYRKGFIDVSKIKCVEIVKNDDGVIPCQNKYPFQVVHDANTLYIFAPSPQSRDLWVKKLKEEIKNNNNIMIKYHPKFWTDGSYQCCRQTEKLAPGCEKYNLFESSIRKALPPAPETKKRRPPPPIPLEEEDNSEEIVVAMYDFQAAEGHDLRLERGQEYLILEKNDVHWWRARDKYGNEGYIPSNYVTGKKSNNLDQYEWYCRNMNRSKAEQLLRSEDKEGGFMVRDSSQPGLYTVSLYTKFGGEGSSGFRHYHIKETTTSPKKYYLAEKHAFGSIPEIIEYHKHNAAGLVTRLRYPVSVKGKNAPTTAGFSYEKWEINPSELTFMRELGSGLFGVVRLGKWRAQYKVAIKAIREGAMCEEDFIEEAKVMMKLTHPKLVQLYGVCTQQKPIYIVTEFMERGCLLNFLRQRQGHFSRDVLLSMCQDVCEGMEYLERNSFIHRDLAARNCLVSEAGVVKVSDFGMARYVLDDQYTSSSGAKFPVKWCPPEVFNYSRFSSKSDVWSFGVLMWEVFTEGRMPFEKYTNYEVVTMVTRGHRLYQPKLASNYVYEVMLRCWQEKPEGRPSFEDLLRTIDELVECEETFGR
Briefly: Inhibition of a panel of kinases, in vitro HotSpot kinase assay: TEC. The following applies: D-compounds panel data; 1 μM ATP. The assay is classed as biochemical. How it is done: The degree of inhibition of a panel of kinases is determined using the in vitro HotSpot kinase assay (purified enzymes, ^33P-ATP, an appropriate substrate and 1 μM ATP).

For `C[C@@H]1[C@H](NC(=O)c2ccc(C3CC3)cc2F)CCCN1c1cnc(C(N)=O)c(Nc2ccc(N3CCN(C)CC3)nc2)n1` [Example D-13, 5-[(2R,3R)-3-(4-cyclopropyl-2-fluorobenzamido)-2-methylpiperidin-1-yl]-3-{[6-(4-methylpiperazin-1-yl)pyridin-3-yl]amino}pyrazine-2-carboxamide], the IC50 lay in the range of 1 to 10 µM in assay [1] and 0.1 to 1 µM in assay [2].
`C[C@@H]1[C@H](NC(=O)c2ccc(C(O)(C(F)(F)F)C(F)(F)F)cc2)CCCN1c1cnc(C(N)=O)c(Nc2cnn(C)c2)n1` [Example D-240, 5-[(2R,3R)-3-[4-(1,1,1,3,3,3-hexafluoro-2-hydroxypropan-2-yl)benzamido]-2-methylpiperidin-1-yl]-3-[(1-methyl-1H-pyrazol-4-yl)amino]pyrazine-2-carboxamide]: the IC50 lay in the range of 1 to 10 µM in assay [1] and 0.01 to 0.1 µM in assay [2].
In the same order, the values of `Cn1cc(Nc2nc(N3CCC[C@@H](n4ccc5cc(C6CC6)ccc5c4=O)C3)nnc2C(N)=O)cn1` [Example D-206, 3-[(3R)-3-(6-cyclopropyl-1-oxo-1,2-dihydroisoquinolin-2-yl)piperidin-1-yl]-5-[(1-methyl-1H-pyrazol-4-yl)amino]-1,2,4-triazine-6-carboxamide] are 1 to 10 µM and at most 0.01 µM.
On to `Cc1ncc(Nc2nc(N3CCC[C@@H](NC(=O)c4ccc(C5CC5)cc4)[C@H]3C)cnc2C(N)=O)s1` [Example D-210, 5-[(2R,3R)-3-(4-cyclopropylbenzamido)-2-methylpiperidin-1-yl]-3-[(2-methyl-1,3-thiazol-5-yl)amino]pyrazine-2-carboxamide], for which the 50% inhibitory concentration (IC50) is 1 to 10 µM in assay [1] and at most 0.01 µM in assay [2].
In the same order, the values of `C[C@@H]1[C@H](NC(=O)c2ccc(N(C)C)cc2)CCCN1c1cnc(C(N)=O)c(Nc2ccc(C3(C)CCN(C4CCCC4)CC3)cc2)n1` [Example D-183, 3-{[4-(1-cyclopentyl-4-methylpiperidin-4-yl)phenyl]amino}-5-[(2R,3R)-3-[4-(dimethylamino)benzamido]-2-methylpiperidin-1-yl]pyrazine-2-carboxamide] are 0.1 to 1 µM and 0.01 to 0.1 µM.
In the same order, the values of `Cn1cc(Nc2nc(N3CC(NC(=O)c4ccc(C5CC5)cc4)CC(F)(F)C3)cnc2C(N)=O)cn1` (stereo in doubt) [Example D-190, 5-[(5S)-5-(4-cyclopropylbenzamido)-3,3-difluoropiperidin-1-yl]-3-[(1-methyl-1H-pyrazol-4-yl)amino]pyrazine-2-carboxamide] are 1 to 10 µM and 0.1 to 1 µM.
In the same order, the values of `C[C@@H]1[C@H](NC(=O)c2ccc(C3CC3)nc2)CCCN1c1cnc(C(N)=O)c(Nc2ccc(N3CCN(C)CC3)cc2)n1` [Example D-203, 5-[(2R,3R)-3-(6-cyclopropylpyridine-3-amido)-2-methylpiperidin-1-yl]-3-{[4-(4-methylpiperazin-1-yl)phenyl]amino}pyrazine-2-carboxamide] are 1 to 10 µM and at most 0.01 µM.
For the compound `C[C@@H]1[C@H](NC(=O)c2cnc(C(C)(C)C)s2)CCCN1c1cnc(C(N)=O)c(Nc2cnn(C)c2)n1` [Example D-239, 5-[(2R,3R)-3-(2-tert-butyl-1,3-thiazole-5-amido)-2-methylpiperidin-1-yl]-3-[(1-methyl-1H-pyrazol-4-yl)amino]pyrazine-2-carboxamide], the values for the concentration for half-maximal inhibition (IC50) in assay [1] and in assay [2] were 0.1 to 1 µM and at most 0.01 µM, respectively.
In the same order, the values of `CC1(c2ccc(Nc3nc(N4CCC[C@@H](n5ccc6cc(C7CC7)ccc6c5=O)C4)cnc3C(N)=O)cc2)CCN(C2CCCC2)CC1` [Example D-177, 3-{[4-(1-cyclopentyl-4-methylpiperidin-4-yl)phenyl]amino}-5-[(3R)-3-(6-cyclopropyl-1-oxo-1,2-dihydroisoquinolin-2-yl)piperidin-1-yl]pyrazine-2-carboxamide] are 0.1 to 1 µM and at most 0.01 µM.

The IC50 is the midpoint of a concentration-inhibition curve.

For the origin of these results see patent US20210070748A1, “INHIBITORS OF BRUTONS TYROSINE KINASE” (Pharmacyclics LLC, priority 2015, published 2021).
